Reference: publication PMC8267566, “Human GPR17 missense variants identified in metabolic disease patients have distinct downstream signaling profiles” (The Journal of Biological Chemistry, 2021)

What was measured:
Assay type in all cases: cell-based
[1] = biological target: T1, hGPR17L-D105N (Homo sapiens, UniProt Q13304, D105N)
T1 construct: expressed in transfected cells; host or cells: HEK293 (ATCC CRL-1573), transient transfection
Method: (§1) For agonist-mediated stimulatory cAMP assays, HEK293 cells were seeded and transfected as noted above. Cells were treated with 100 ng/ml pertussis toxin overnight (Sigma-Aldrich P2980). Twenty-four hours posttransfection, growth medium and transfection mix were aspirated and replaced with 100 μl/well equilibration medium (2% Promega GloSensor cAMP reagent [E1291; Promega Corporation] in CO2-independent medium) containing 100 ng/ml pertussis toxin and incubated at room temperature for 2 h. Baseline luminescence was read every 2 min on a Molecular Devices SpectraMax iD5 plate reader (Molecular Devices) at ambient room temperature for 8 min. Subsequently, 10 μl/well MDL29,951 diluted in assay buffer (HBSS, 20 mM HEPES, pH 7.2) was added and luminescence was read every 2 min for 16 min. Within each well, the luminescence values for each time point were normalized to their average baseline luminescence values. The average luminescence values for the time points between 8 and 16 min after MDL29,951 addition were expressed as a percentage of the maximum response observed for hGPR17L-WT.

[2] = biological target: T2, hGPR17L-G136S (Homo sapiens, UniProt Q13304, G136S)
T2 construct: expressed in transfected cells; host or cells: HEK293 (ATCC CRL-1573), transient transfection
T2 sequence (Q13304 whole entry G136S): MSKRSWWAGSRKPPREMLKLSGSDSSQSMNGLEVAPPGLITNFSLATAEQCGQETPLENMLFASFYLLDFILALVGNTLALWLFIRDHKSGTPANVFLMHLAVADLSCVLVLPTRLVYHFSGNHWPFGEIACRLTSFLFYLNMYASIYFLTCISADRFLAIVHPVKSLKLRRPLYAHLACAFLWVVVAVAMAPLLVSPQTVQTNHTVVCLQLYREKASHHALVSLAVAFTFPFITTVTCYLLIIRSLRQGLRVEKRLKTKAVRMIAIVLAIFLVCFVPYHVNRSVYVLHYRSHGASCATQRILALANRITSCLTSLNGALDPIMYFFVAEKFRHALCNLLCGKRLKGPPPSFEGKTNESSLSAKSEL
Method: as §1

[3] = biological target: T3, hGPR17L-V96M (Homo sapiens, UniProt Q13304, V96M)
T3 construct: expressed in transfected cells; host or cells: HEK293 (ATCC CRL-1573), transient transfection
T3 sequence (Q13304 whole entry V96M): as the sequence (Q13304 whole entry G136S) above, with V96M, S136G counted along it
Method: as §1

[4] = biological target: T4, hGPR17L-WT (Homo sapiens, UniProt Q13304)
T4 construct: expressed in transfected cells; host or cells: HEK293 (ATCC CRL-1573), transient transfection of pcDNA3-HA-hGPR17L
T4 sequence (Q13304 whole entry): as the sequence (Q13304 whole entry G136S) above, with S136G counted along it
Method: as §1

[5] = biological target: T5, hGPR17L-A131T (Homo sapiens, UniProt Q13304, A131T); experiment: GloSensor stimulatory cAMP assay with pertussis toxin pretreatment
T5 construct: expressed in transfected cells; host or cells: HEK293 (ATCC CRL-1573), transient transfection
T5 sequence (Q13304 whole entry A131T): as the sequence (Q13304 whole entry G136S) above, with A131T, S136G counted along it
Method: as §1

[6] = biological target: T6, hGPR17L-F43L (Homo sapiens, UniProt Q13304, F43L); experiment: as above
T6 construct: expressed in transfected cells; host or cells: HEK293 (ATCC CRL-1573), transient transfection
T6 sequence (Q13304 whole entry F43L): as the sequence (Q13304 whole entry G136S) above, with F43L, S136G counted along it
Method: as §1

[7] = biological target: T7, hGPR17L-G354V (Homo sapiens, UniProt Q13304, G354V); experiment: as above
T7 construct: expressed in transfected cells; host or cells: HEK293 (ATCC CRL-1573)
T7 sequence (Q13304 whole entry G354V): as the sequence (Q13304 whole entry G136S) above, with S136G, G354V counted along it
Method: as §1

[8] = biological target: T8, hGPR17L-R248Q (Homo sapiens, UniProt Q13304, R248Q); experiment: as above
T8 construct: expressed in transfected cells; host or cells: HEK293 (ATCC CRL-1573), transient transfection
T8 sequence (Q13304 whole entry R248Q): as the sequence (Q13304 whole entry G136S) above, with S136G, R248Q counted along it
Method: as §1

[9] = biological target: T9, hGPR17L-R301H (Homo sapiens, UniProt Q13304, R301H); experiment: as above
T9 construct: expressed in transfected cells; host or cells: HEK293 (ATCC CRL-1573)
T9 sequence (Q13304 whole entry R301H): as the sequence (Q13304 whole entry G136S) above, with S136G, R301H counted along it
Method: as §1

[10] = biological target: T10, hGPR17L-V103M (Homo sapiens, UniProt Q13304, V103M); experiment: as above
T10 construct: expressed in transfected cells; host or cells: HEK293 (ATCC CRL-1573), transient transfection
T10 sequence (Q13304 whole entry V103M): as the sequence (Q13304 whole entry G136S) above, with V103M, S136G counted along it
Method: as §1

[11] = read-out: Stimulatory cAMP EC50

T1 sequence (Q13304 whole entry D105N): as the sequence (Q13304 whole entry G136S) above, with D105N, S136G counted along it

For `O=C(O)CCc1c(C(=O)O)[nH]c2cc(Cl)cc(Cl)c12` [MDL29,951], which “stimulatory cAMP response” value [1] is on record?
The value was “unable to promote stimulatory cAMP responses”.

What about the “stimulatory cAMP response” value [2] of the same compound?
Its value is “unable to promote stimulatory cAMP responses”.

And the “stimulatory cAMP response” value [3]?
The value was “unable to promote stimulatory cAMP responses”.

And the “Stimulatory cAMP Efficacy (% of WT Emax)” value [4]?
The value was 100 % of WT Emax.

What about the “Stimulatory cAMP pEC50 ± SEM” value [4] of the same compound?
The value was 5.18 ± 0.04.

What about the “maximum stimulatory cAMP response” value [4] of the same compound?
The value was 1.21 ± 0.24 ΔRLU/RLU.

And the EC50 [4, 11]?
Its EC50 is 6.6 µM.

And the “Stimulatory cAMP pEC50 ± SEM” value [5]?
Its value is 4.72 ± 0.05.

And the “loss of potency, fold shift in EC50 vs hGPR17L-WT (stimulatory cAMP)” value [5]?
Its value is 3–7 fold.

And the “Stimulatory cAMP Efficacy (% of WT Emax)” value ([5]; hGPR17L-A131T, HEK293, 100 ng/ml pertussis toxin overnight)?
Its value is 105 ± 21 % of WT Emax.

And the EC50 [5, 11]?
Its EC50 is 19 µM.

What about the “Stimulatory cAMP pEC50 ± SEM” value [6] of the same compound?
The value was 5.21 ± 0.13.

And the “Stimulatory cAMP Efficacy (% of WT Emax)” value ([6]; hGPR17L-F43L, HEK293, 100 ng/ml pertussis toxin overnight)?
Its value is 99 ± 20 % of WT Emax.

What about the EC50 [6, 11] of the same compound?
The EC50 was 6.2 µM.

And the “Stimulatory cAMP pEC50 ± SEM” value [7]?
Its value is 4.88 ± 0.12.

And the “Stimulatory cAMP Efficacy (% of WT Emax)” value ([7]; hGPR17L-G354V, HEK293, 100 ng/ml pertussis toxin overnight)?
Its value is 105 ± 23 % of WT Emax.

What about the EC50 [7, 11] of the same compound?
Its EC50 is 14 µM.

What about the “Stimulatory cAMP pEC50 ± SEM” value [8] of the same compound?
Its value is 5.22 ± 0.01.

And the “Stimulatory cAMP Efficacy (% of WT Emax)” value ([8]; hGPR17L-R248Q, HEK293, 100 ng/ml pertussis toxin overnight)?
Its value is 41 ± 1.7 % of WT Emax.

And the EC50 [8, 11]?
Its EC50 is 6.1 µM.

What about the “Stimulatory cAMP pEC50 ± SEM” value [9] of the same compound?
The value was 4.84 ± 0.12.

What about the “Stimulatory cAMP Efficacy (% of WT Emax)” value ([9]; hGPR17L-R301H, HEK293, 100 ng/ml pertussis toxin overnight) of the same compound?
The value was 68 ± 11 % of WT Emax.

What about the EC50 [9, 11] of the same compound?
Its EC50 is 16 µM.

And the “Stimulatory cAMP pEC50 ± SEM” value [10]?
The value was 4.33 ± 0.36.

What about the “loss of potency, fold shift in EC50 vs hGPR17L-WT (stimulatory cAMP)” value [10] of the same compound?
Its value is 3–7 fold.

What about the “Stimulatory cAMP Efficacy (% of WT Emax)” value ([10]; hGPR17L-V103M, HEK293, 100 ng/ml pertussis toxin overnight) of the same compound?
The value was 150 ± 48 % of WT Emax.

What about the EC50 [10, 11] of the same compound?
Its EC50 is 47 µM.
